Laboratory results taken from patent US12311033B2, “Lipid nanoparticle formulations and compositions” (CAPSTAN THERAPEUTICS, INC., priority 2023, dated 2025).

Tests used:
[1] = Ionizable cationic lipid in plasma, liver and spleen 24 hours after tLNP, LC/MS/MS; type: in vivo, cynomolgus macaques
Method: Samples were taken from cynomolgus macaques that had been intravenously administered either BF1 or F5 tLNPs (two each) at a dosage of 3 mg mRNA/kg in the preceding example. The tLNPs were conjugated to anti-CD5 mentioned in Example 2 as the targeting moiety. 24 hours after administration the animals were sacrificed and plasma, liver, and spleen tissue collected from two animals in each group and assessed by mass spectrometry for presence of these ionizable cationic lipids in order to assess biodegradability and biodistribution of these ionizable cationic lipids.
Briefly, plasma was stabilized for mass spectrometry by addition of 10 μL of formic acid per mL of K2EDTA plasma. Spleen and liver tissue were homogenized in 19 parts of homogenization buffer (50:40:10 0.1% formic acid in 1:1 methanol: acetone/10 mM ammonium formate with 0.2% formic acid/dimethylformamide (DMF)) to 1 part tissue (v/w) using a Geno/Grinder® (SPEX® SamplePrep) set to two minutes at 1500 rpms.
Calibration curves and quality control samples were prepared by spiking control matrix (plasma or homogenate) with CICL1 or ALC-0315 in DMF. The extraction was performed on wet ice by adding 300 μL of crashing solvent (0.1% formic acid in 1:1 methanol: acetonitrile) to 25 μL of sample to which 50 μL of internal standard was added (1:1 isopropyl alcohol: water). The extracts were mixed for four minutes at 1500 rpms and then centrifuged at 3000×g for ten minutes. 200 μL of supernatant was transferred to a clean 96 well plate for LC/MS/MS analysis.
Chromatography was performed on a Waters XBridge BEH C8 column (130 Å, 2.5 μm, 2.1×30 mm) using the following gradient. Mobile phase A (10 mM ammonium format in water with 0.2% formic acid) was held at 20% for 0.3 minutes before being reduced to 5% over 1.2 minutes. This condition was held for one minute before being returned to 80% B (0.1% formic acid in 1:1 methanol: acetonitrile) in 0.1 minutes. The column was then held at 80% B for 1.4 minutes. LC flow rate was held at 0.5 mL/min and the autosampler held at 2-8° C. The mass spectrum was obtained with a triple quadrupole apparatus using atmospheric pressure ionization (Sciex).
Quantitation was performed using a 1/X2 quadratic regression using the peak area for transition 1013.6→968.4 (CICL1) or 766.6→748.4 (ALC-0315) over peak area of transition 1040.6→995.4 of the internal standard.

[2] = Time course of ionizable cationic lipid (LC-MS) and mRNA (digital PCR) in plasma, spleen, liver; type: in vivo; details: mice; for plasma levels of lipid at 7 days: CD8-targeted tLNP F9 (CICL1) or BF1 (ALC-0315)
Method: To obtain more detailed data a similar experiment was conducted in mice where it was possible to obtain a time course of disappearance of the ionizable cationic lipid and the encapsulated mRNA as well. Mice were intravenously administered 2 mg/kg tLNP of composition BF1 (comprising ALC-0315) or F9 (comprising CICL1) targeted to mouse CD8 and encapsulating an anti-human CD19 CAR, and monitored through 7 days. At each timepoint, 3 mice were sacrificed, and liver, spleen, and plasma were processed for LC-MS-based detection of lipid concentration and digital PCR detection of the mRNA. In plasma, mRNA level was normalized to a known amount of mRNA spiked in a control. In spleen and liver mRNA level was normalized to mRNA for the housekeeping gene GAPDH.

[3] = biological target: signal regulatory protein a (SIRPα) (Homo sapiens, UniProt P78324); details: reported in Rodriguez et al., 2013; cited from earlier work
[4] = 24 hours after BF1 tLNP, 3 mg mRNA/kg

Chain of signal regulatory protein a (SIRPα) (P78324 31-504): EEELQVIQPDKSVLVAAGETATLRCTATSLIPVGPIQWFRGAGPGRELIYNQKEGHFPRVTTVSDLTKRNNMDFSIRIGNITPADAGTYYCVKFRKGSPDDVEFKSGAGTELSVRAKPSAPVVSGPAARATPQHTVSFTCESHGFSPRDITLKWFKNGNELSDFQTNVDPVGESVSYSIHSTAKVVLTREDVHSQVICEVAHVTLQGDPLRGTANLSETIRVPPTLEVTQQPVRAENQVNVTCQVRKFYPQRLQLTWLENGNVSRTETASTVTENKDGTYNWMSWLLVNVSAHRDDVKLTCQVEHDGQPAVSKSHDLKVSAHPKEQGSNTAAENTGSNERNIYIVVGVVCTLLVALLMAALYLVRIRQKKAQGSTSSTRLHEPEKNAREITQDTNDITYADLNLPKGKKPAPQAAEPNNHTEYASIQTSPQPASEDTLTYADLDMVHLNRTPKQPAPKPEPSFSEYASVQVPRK

In the case of CCCCCCCCC(CCCCCC)C(=O)OCCCCCCN(CCCCO)CCCCCCOC(=O)C(CCCCCC)CCCCCCCC (centres unmarked) [ALC-0315, [(4-Hydroxybutyl)azanediyl]di(hexane-6,1-diyl)bis(2-hexyldecanoate), reference compound], the “concentration in liver, fold greater (reference not given)” value [1, 4] is reported as “approximately 14 fold”, the “concentration in spleen, fold greater (reference not given)” value [1, 4] is reported as ~11 fold and the “concentration in blood, fold greater than CICL1” value ([1]; 24 hours after BF1 versus F5 tLNP, 3 mg mRNA/kg) is reported as “about 6 fold”. The “plasma levels of lipid at 7 days” value ([2]; 2 mg/kg i.v.) was “still detected” and the “lipid levels in spleen and liver” value ([2]; 2 mg/kg i.v., through 7 days) was “remained almost unchanged throughout the 7 days”.
In the case of CCCCCCCCC(=O)OCC(COC(=O)CCCCCCCC)CC(=O)OCCN(CCOC(=O)CC(COC(=O)CCCCCCCC)COC(=O)CCCCCCCC)C(=O)OCCN(C)C [CICL1], the “concentrations in blood, liver, and spleen relative to each other” value ([1]; 24 hours after F5 tLNP, 3 mg mRNA/kg) is reported as ≤ 2 fold, the “amount of lipid present in blood, liver, and spleen” value ([1]; 24 hours after F5 tLNP, 3 mg mRNA/kg i.v.) is reported as “only very small amounts” and the “liver concentration, fold less than for ALC-0315” value ([1]; 24 hours, 3 mg mRNA/kg) is reported as “approximately 127 fold”. The “spleen concentration, fold less than for ALC-0315” value ([1]; 24 hours, 3 mg mRNA/kg) was ~35 fold, the biodegradability ([1]; clearance data, at least at the initial step) was “much more biodegradable than ALC-0315” and the “time after administration by which lipid levels were falling in the liver” value ([2]; 2 mg/kg F9 tLNP) was ≤ 2 h. The “time after administration by which lipid levels were falling in the spleen” value ([2]; 2 mg/kg F9 tLNP) was ≤ 1 h and the “plasma levels of lipid at 7 days” value ([2]; 2 mg/kg i.v.) was “returned to baseline”.
For “NYTCEVTELSREGKTVIELK (SEQ ID NO: 3) [CD47 peptide]”, the “binding affinity to SIRPα, fold stronger than full-length CD47 protein” value [3] is given as 10 fold.
